Species on record: Rattus norvegicus
Experiment: DrugMatrix - Regimen: Daily Repeat
Assay type: toxicity, organism-based, Sprague-Dawley
Design: regimen Daily Repeat, gender Male, age 6-8 weeks
Settings: in vivo, po, route oral GAVAGE, vehicle 100 % WATER; for ABSOLUTE BASOPHIL / ABSOLUTE EOSINOPHIL / ABSOLUTE LYMPHOCYTE / ABSOLUTE MONOCYTE / ABSOLUTE SEGMENTED NEUTROPHIL / BASOPHIL / EOSINOPHIL / ERYTHROCYTE COUNT / HEMATOCRIT / HEMOGLOBIN / LEUKOCYTE COUNT / LYMPHOCYTE / MEAN CORPUSCULAR HEMOGLOBIN / MEAN CORPUSCULAR HEMOGLOBIN CONCENTRATION / MEAN CORPUSCULAR VOLUME / MONOCYTE / NEUTROPHIL / NUCLEATED RED BLOOD CELLS / PLATELET COUNT: tissue Blood; for ALANINE AMINOTRANSFERASE / ALBUMIN / ALKALINE PHOSPHATASE / ASPARTATE AMINOTRANSFERASE / BLOOD UREA NITROGEN / CARBON DIOXIDE / CHLORIDE / CHOLESTEROL / CREATINE PHOSPHOKINASE / CREATININE / GLUCOSE / LACTATE DEHYDROGENASE / LIPASE / PHOSPHORUS / POTASSIUM / SODIUM / TOTAL BILIRUBIN / TOTAL PROTEIN / URIC ACID: tissue Plasma
[1] = 48 mg/kg, 72 h, dose level High, time 3 day
[2] = 48 mg/kg, 120 h, dose level High, time 5 day
[3] = […], 72 h, dose 3.2 mg/Kg, dose level Low, time 3 day
[4] = […], 120 h, dose 3.2 mg/Kg, dose level Low, time 5 day

O=C(c1ccccc1)c1ccc2n1CCC2C(=O)O (configuration not stated) [KETOROLAC]
ABSOLUTE BASOPHIL [1]: 0 CELLS/uL | ABSOLUTE EOSINOPHIL [1]: 209.67 CELLS/uL | ABSOLUTE LYMPHOCYTE [1]: 27063 CELLS/uL | ABSOLUTE MONOCYTE [1]: 1382.33 CELLS/uL | ABSOLUTE SEGMENTED NEUTROPHIL [1]: 3145 CELLS/uL | BASOPHIL [1]: 0% | EOSINOPHIL [1]: 0.67% | ERYTHROCYTE COUNT [1]: 3.97 x10E6/uL | HEMATOCRIT [1]: 23.77% | HEMOGLOBIN [1]: 9.13 G/DL | LEUKOCYTE COUNT [1]: 31.8 x10E3/uL | LYMPHOCYTE [1]: 85% | MEAN CORPUSCULAR HEMOGLOBIN [1]: 23.5 pg | MEAN CORPUSCULAR HEMOGLOBIN CONCENTRATION [1]: 38.6 G/DL | MEAN CORPUSCULAR VOLUME [1]: 60.83 fL | MONOCYTE [1]: 4.33% | NEUTROPHIL [1]: 10% | NUCLEATED RED BLOOD CELLS [1]: 0.33 /100WBC | PLATELET COUNT [1]: 1452.33 x10E3/uL | ALANINE AMINOTRANSFERASE [1]: 19.67 u/L | ALBUMIN [1]: 3.1 G/DL | ALKALINE PHOSPHATASE [1]: 170.33 u/L | ASPARTATE AMINOTRANSFERASE [1]: 55.33 u/L | BLOOD UREA NITROGEN [1]: 14 mg/dL | CARBON DIOXIDE [1]: 24 mmol/L | CHLORIDE [1]: 105.33 MEQ/L | CHOLESTEROL [1]: 64.67 mg/dL | CREATINE PHOSPHOKINASE [1]: 293 u/L | CREATININE [1]: 0.19 mg/dL | GLUCOSE [1]: 170 mg/dL | LACTATE DEHYDROGENASE [1]: 145.33 u/L | LIPASE [1]: 7.67 u/L | PHOSPHORUS [1]: 12.67 mg/dL | POTASSIUM [1]: 7.45 MEQ/L | SODIUM [1]: 144.47 MEQ/L | TOTAL BILIRUBIN [1]: 0.13 mg/dL | TOTAL PROTEIN [1]: 5.17 G/DL | URIC ACID [1]: 3 mg/dL | ABSOLUTE BASOPHIL [2]: 0 CELLS/uL | ABSOLUTE EOSINOPHIL [2]: 0 CELLS/uL | ABSOLUTE LYMPHOCYTE [2]: 14525.25 CELLS/uL | ABSOLUTE MONOCYTE [2]: 548.5 CELLS/uL | ABSOLUTE SEGMENTED NEUTROPHIL [2]: 4876.25 CELLS/uL | BASOPHIL [2]: 0% | EOSINOPHIL [2]: 0% | ERYTHROCYTE COUNT [2]: 4.52 x10E6/uL | HEMATOCRIT [2]: 27.15% | HEMOGLOBIN [2]: 10.4 G/DL | LEUKOCYTE COUNT [2]: 19.95 x10E3/uL | LYMPHOCYTE [2]: 76.25% | MEAN CORPUSCULAR HEMOGLOBIN [2]: 23.03 pg | MEAN CORPUSCULAR HEMOGLOBIN CONCENTRATION [2]: 38.32 G/DL | MEAN CORPUSCULAR VOLUME [2]: 60.12 fL | MONOCYTE [2]: 3.25% | NEUTROPHIL [2]: 20.5% | NUCLEATED RED BLOOD CELLS [2]: 0.5 /100WBC | PLATELET COUNT [2]: 2011.5 x10E3/uL | ALANINE AMINOTRANSFERASE [2]: 73.25 u/L | ALBUMIN [2]: 2.58 G/DL | ALKALINE PHOSPHATASE [2]: 411.75 u/L | ASPARTATE AMINOTRANSFERASE [2]: 294 u/L | BLOOD UREA NITROGEN [2]: 25.5 mg/dL | CARBON DIOXIDE [2]: 25.25 mmol/L | CHLORIDE [2]: 102 MEQ/L | CHOLESTEROL [2]: 70.5 mg/dL | CREATINE PHOSPHOKINASE [2]: 1478 u/L | CREATININE [2]: 0.18 mg/dL | GLUCOSE [2]: 115.25 mg/dL | LACTATE DEHYDROGENASE [2]: 533.75 u/L | LIPASE [2]: 13.5 u/L | PHOSPHORUS [2]: 13.42 mg/dL | POTASSIUM [2]: 7.39 MEQ/L | SODIUM [2]: 142.23 MEQ/L | TOTAL BILIRUBIN [2]: 0.18 mg/dL | TOTAL PROTEIN [2]: 5.4 G/DL | URIC ACID [2]: 2.45 mg/dL | ABSOLUTE BASOPHIL [3]: 0 CELLS/uL | ABSOLUTE EOSINOPHIL [3]: 59.33 CELLS/uL | ABSOLUTE LYMPHOCYTE [3]: 7885.33 CELLS/uL | ABSOLUTE MONOCYTE [3]: 273 CELLS/uL | ABSOLUTE SEGMENTED NEUTROPHIL [3]: 682.33 CELLS/uL | BASOPHIL [3]: 0% | EOSINOPHIL [3]: 0.67% | ERYTHROCYTE COUNT [3]: 5.54 x10E6/uL | HEMATOCRIT [3]: 36.1% | HEMOGLOBIN [3]: 13.73 G/DL | LEUKOCYTE COUNT [3]: 8.9 x10E3/uL | LYMPHOCYTE [3]: 88.67% | MEAN CORPUSCULAR HEMOGLOBIN [3]: 24.83 pg | MEAN CORPUSCULAR HEMOGLOBIN CONCENTRATION [3]: 38.07 G/DL | MEAN CORPUSCULAR VOLUME [3]: 65.27 fL | MONOCYTE [3]: 3% | NEUTROPHIL [3]: 7.67% | NUCLEATED RED BLOOD CELLS [3]: 0 /100WBC | PLATELET COUNT [3]: 1257 x10E3/uL | ALANINE AMINOTRANSFERASE [3]: 47.67 u/L | ALBUMIN [3]: 4.6 G/DL | ALKALINE PHOSPHATASE [3]: 439.67 u/L | ASPARTATE AMINOTRANSFERASE [3]: 96 u/L | BLOOD UREA NITROGEN [3]: 11.33 mg/dL | CARBON DIOXIDE [3]: 32.33 mmol/L | CHLORIDE [3]: 102.5 MEQ/L | CHOLESTEROL [3]: 64.67 mg/dL | CREATINE PHOSPHOKINASE [3]: 218 u/L | CREATININE [3]: 0.17 mg/dL | GLUCOSE [3]: 144.33 mg/dL | LACTATE DEHYDROGENASE [3]: 103.33 u/L | LIPASE [3]: 9.33 u/L | PHOSPHORUS [3]: 11.4 mg/dL | POTASSIUM [3]: 6 MEQ/L | SODIUM [3]: 148.9 MEQ/L | TOTAL BILIRUBIN [3]: 0.0667 mg/dL | TOTAL PROTEIN [3]: 6.63 G/DL | URIC ACID [3]: 0.43 mg/dL | ABSOLUTE BASOPHIL [4]: 0 CELLS/uL | ABSOLUTE EOSINOPHIL [4]: 0 CELLS/uL | ABSOLUTE LYMPHOCYTE [4]: 9946 CELLS/uL | ABSOLUTE MONOCYTE [4]: 214 CELLS/uL | ABSOLUTE SEGMENTED NEUTROPHIL [4]: 540 CELLS/uL | BASOPHIL [4]: 0% | EOSINOPHIL [4]: 0% | ERYTHROCYTE COUNT [4]: 6.18 x10E6/uL | HEMATOCRIT [4]: 38.5% | HEMOGLOBIN [4]: 14.07 G/DL | LEUKOCYTE COUNT [4]: 10.7 x10E3/uL | LYMPHOCYTE [4]: 93% | MEAN CORPUSCULAR HEMOGLOBIN [4]: 22.77 pg | MEAN CORPUSCULAR HEMOGLOBIN CONCENTRATION [4]: 36.63 G/DL | MEAN CORPUSCULAR VOLUME [4]: 62.23 fL | MONOCYTE [4]: 2% | NEUTROPHIL [4]: 5% | NUCLEATED RED BLOOD CELLS [4]: 0 /100WBC | PLATELET COUNT [4]: 1155 x10E3/uL | ALANINE AMINOTRANSFERASE [4]: 40 u/L | ALBUMIN [4]: 4.43 G/DL | ALKALINE PHOSPHATASE [4]: 422.33 u/L | ASPARTATE AMINOTRANSFERASE [4]: 70.67 u/L | BLOOD UREA NITROGEN [4]: 14.67 mg/dL | CARBON DIOXIDE [4]: 33.67 mmol/L | CHLORIDE [4]: 102 MEQ/L | CHOLESTEROL [4]: 81 mg/dL | CREATINE PHOSPHOKINASE [4]: 512.33 u/L | CREATININE [4]: 0.16 mg/dL | GLUCOSE [4]: 169.33 mg/dL | LACTATE DEHYDROGENASE [4]: 125 u/L | LIPASE [4]: 9 u/L | PHOSPHORUS [4]: 13.57 mg/dL | POTASSIUM [4]: 6.98 MEQ/L | SODIUM [4]: 147.2 MEQ/L | TOTAL BILIRUBIN [4]: 0.2 mg/dL | TOTAL PROTEIN [4]: 6.37 G/DL | URIC ACID [4]: 1.83 mg/dL

— ChEMBL document CHEMBL3885881, “DrugMatrix”
